Experimental data taken from patent US6316448A, “Pyrazolo[3,4-d][1,2,3] troazines having anticonvulsant activity and process for their preparation” (priority 1999, dated 2001).

Columns and labels:
[1] = Anticonvulsive action, maximal electroshock (MES), mouse i.p.; format: in vivo
Source text: (§1) ^3) Mouse i.p.: MES = maximal electroshock, PTZ = s.c. pentetrazol
(§2) ^5) in % of the protected animals

[2] = Anticonvulsive action, s.c. pentetrazol (PTZ), mouse i.p.; format: in vivo
Source text: as §1, §2

[3] = Octanol/water partition coefficient; format: physicochemical
Source text: ^2) Octanol/water partition coefficient, n = not measured

[4] = Maximal electroshock, rat p.o.; format: in vivo; conditions: po
Method: The compounds according to the invention were tested in vivo for their anticonvulsive action (Table 1) in mice (i.p. administration) or rats (p.o. administration) according to the internationally customary standard (Pharmac. Weekblad, Sc. Ed. 14, 132 (1992) and Antiepileptic Drugs, Third. Ed., Raven Press, New York 1989).
(§3) Analogous results were obtained for the oral action.

in vivo = conditions: rat, po
Source text: as §3

[5] = ip, mouse i.p., MES, 100 mg/kg, read-out: Action, % of the protected animals (MES)
[6] = ip, mouse i.p., s.c. pentetrazol, read-out: Action, % of the protected animals (PTZ)
[7] = ip, mouse i.p., s.c. pentetrazol, 100 mg/kg, read-out: Action, % of the protected animals (PTZ)
[8] = ip, mouse i.p., MES, read-out: Action, % of the protected animals (MES)

Compound	responders at 100 mg/kg [1, 5] [%]	responders at 300 mg/kg [2, 6] [%]	logP [3]	responders at 100 mg/kg [2, 7] [%]	further results
O=c1[nH]nnc2nn(Cc3cccc(Cl)c3)cc12 [Compound 5, 6-(3-chlorobenzyl)-3,6-dihydropyrazolo[3,4-d][1,2,3]triazin-4-one]	100	0	1.83	–	–
6-(2-chloro-4-fluorobenzyl)-5-methyl-3,6-dihydropyrazolo[3,4-d][1,2,3]triazin-4-one [Compound 11]	–	–	–	–	Action, % of the protected animals (MES) ([1]; mouse i.p., MES, 100 mg/kg): 66%; Action, % of the protected animals (PTZ) ([2]; mouse i.p., s.c. pentetrazol, 100 mg/kg): 33%
NC(=O)N1c2ccccc2C=Cc2ccccc21 [Carbamazepine, reference compound]	100	–	–	0	–
O=c1[nH]nnc2nn(Cc3cccc(C(F)(F)F)c3)cc12 [Compound 6, 6-(3-trifluoromethylbenzyl)-3,6-dihydropyrazolo[3,4-d][1,2,3]triazin-4-one]	66	–	2.02	20	–
Cc1ccccc1Cn1cc2c(=O)[nH]nnc2n1 [Compound 4, 6-(2-methylbenzyl)-3,6-dihydropyrazolo[3,4-d][1,2,3]triazin-4-one]	–	100	0.74	–	responders at 30 mg/kg [1, 8]: 100%
O=c1[nH]nnc2nn(Cc3ccccc3)cc12 [Compound 12, 6-benzyl-3,6-dihydropyrazolo[3,4-d][1,2,3]triazin-4-one]	66	–	–	0	–
Cc1c2c(=O)[nH]nnc2nn1Cc1ccccc1Cl [Compound 10, 6-(2-chlorobenzyl)-5-methyl-3,6dihydropyrazolo[3,4-d][1,2,3]triazin-4one]	66	0	–	–	–
CCCC(CCC)C(=O)O [Valproate, reference compound]	–	–	–	–	responders at 100 mg/kg ([1]; Mus musculus, ip, read-out: Action, % of the protected animals (MES)): 0%; responders at 100 mg/kg ([2]; Mus musculus, ip, read-out: Action, % of the protected animals (PTZ)): 30%
O=c1[nH]nnc2nn(Cc3ccccc3F)cc12 [Compound 1, 6-(2-fluorobenzyl)-3,6-dihydropyrazolo[3,4-d][1,2,3]triazin-4-one]	–	–	–	66	responders at 30 mg/kg [1, 8]: 100%
O=c1[nH]nnc2nn(Cc3ccc(F)cc3)cc12 [Compound 7, 6-(4-fluorobenzyl)-3,6-dihydropyrazolo[3,4-d][1,2,3]triazin-4-one]	66	100	1.28	–	–
O=c1[nH]nnc2nn(Cc3ccc(Cl)cc3)cc12 [Compound 8, 6-(4-chlorobenzyl)-3,6-dihydropyrazolo[3,4-d][1,2,3]triazin-4-one]	–	100	1.88	–	responders at 300 mg/kg ([1]; ip, mouse i.p., MES, 300 mg/kg, read-out: Action, % of the protected animals (MES)): 100%
O=c1[nH]nnc2nn(Cc3ccccc3Cl)cc12 [Compound 2, 6-(2-chlorobenzyl)-3,6-dihydropyrazolo[3,4-d][1,2,3]triazin-4-one]	–	–	0.82	–	responders at 30 mg/kg [1, 8]: 100%; responders at 30 mg/kg ([2]; ip, mouse i.p., s.c. pentetrazol, 30 mg/kg, read-out: Action, % of the protected animals (PTZ)): 60%; ED50 [4]: 3 mg/kg; TD50 (in vivo): > 250 mg/kg
O=c1[nH]nnc2nn(Cc3c(F)cccc3Cl)cc12 [Compound 9, 6-(2-chloro-6-fluorobenzyl)-3,6-dihydropyrazolo[3,4-d][1,2,3]triazin-4one]	–	–	1.38	100	responders at 10 mg/kg ([1]; ip, mouse i.p., MES, 10 mg/kg, read-out: Action, % of the protected animals (MES)): 20%
O=c1[nH]nnc2nn(Cc3ccccc3C(F)(F)F)cc12 [Compound 3, 6-(2-trifluoromethylbenzyl)-3,6-dihydropyrazolo[3,4-d][1,2,3]triazin-4-one]	–	–	1.74	100	responders at 30 mg/kg [1, 8]: 33%
